ChEMBL document CHEMBL1201862, “PubChem BioAssay data set” (2004)
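Each compound was tested at five concentrations against cells in 96-well plates for 48 hours. At the GI50, growth is halved.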 Activity calls are given as the source filed them. Cut-off read from the data, not from the text of the source: active = GI50 up to about 1.1 µM and inactive = higher.

Key:
Assay in all cases: inhibition of tumour cell growth, NCI panel, 48 h
Hs-578T = test system: Hs-578T
MOLT-4 = test system: MOLT-4
MDA-MB-231 = test system: MDA-MB-231
HT-29 = test system: HT-29
DU-145 = test system: DU-145
OVCAR-4 = test system: OVCAR-4
T47D = test system: T47D
NCI-H23 = test system: NCI-H23
UO-31 = test system: UO-31
NCI/ADR-RES = test system: NCI/ADR-RES
U-251 = test system: U-251
A498 = test system: A498
SW-620 = test system: SW-620
BT-549 = test system: BT-549
CAKI-1 = test system: CAKI-1
MCF7 = test system: MCF7
NCI-H522 = test system: NCI-H522
NCI-H460 = test system: NCI-H460

Measured: GI50

CC(C)=CCc1c(O)c(CC2=C(O)C(CC=C(C)C)(C(=O)C(C)C)C(O)=C(C)C2=O)c(O)c(C(=O)C(C)C)c1O (stereo not drawn)
inactive: Hs-578T 9.89 µM | MOLT-4 2.31 µM | MDA-MB-231 17 µM | HT-29 3.88 µM | DU-145 18.9 µM | OVCAR-4 15.8 µM | T47D 8.45 µM | NCI-H23 8.43 µM | UO-31 7.59 µM | NCI/ADR-RES 10.6 µM | U-251 12.4 µM | A498 9.57 µM | SW-620 24 µM | BT-549 11.6 µM | CAKI-1 17.5 µM | MCF7 11.7 µM | NCI-H522 6.55 µM

CN1c2ccccc2SC2C(c3ccccc3)=NOC21 (stereo not drawn)
inactive: Hs-578T 29 µM | MOLT-4 30.4 µM | MDA-MB-231 27 µM | NCI-H460 28.5 µM | HT-29 30.1 µM | DU-145 65.6 µM | OVCAR-4 65.8 µM | T47D 21.5 µM | NCI-H23 23.1 µM | UO-31 35.1 µM | NCI/ADR-RES 29.8 µM | U-251 38.5 µM | A498 28.4 µM | SW-620 25.1 µM | BT-549 26.6 µM | CAKI-1 40.6 µM | MCF7 42.7 µM | NCI-H522 30.1 µM

CC1(C)CC(=O)c2c(nc3c4c([nH]c(-c5ccc([N+](=O)[O-])cc5)c24)CC(C)(C)C3)C1
inactive: Hs-578T 56.5 µM | MOLT-4 4.14 µM | MDA-MB-231 43.6 µM | NCI-H460 38.5 µM | HT-29 11.1 µM | DU-145 81.8 µM | OVCAR-4 34 µM | T47D 26.9 µM | NCI-H23 48.5 µM | UO-31 29.6 µM | NCI/ADR-RES 21.5 µM | U-251 26.7 µM | A498 4.26 µM | SW-620 47.4 µM | BT-549 34 µM | CAKI-1 44.1 µM | MCF7 27.7 µM | NCI-H522 48.5 µM

N#Cc1nnn(-c2ccc(Br)cc2)c1O
inactive: Hs-578T > 100 µM | MOLT-4 10 µM | MDA-MB-231 > 100 µM | HT-29 > 100 µM | DU-145 > 100 µM | OVCAR-4 > 100 µM | T47D > 100 µM | NCI-H23 > 100 µM | UO-31 > 100 µM | NCI/ADR-RES > 100 µM | U-251 > 100 µM | A498 > 100 µM | SW-620 > 100 µM | BT-549 > 100 µM | CAKI-1 > 100 µM | MCF7 > 100 µM | NCI-H522 > 100 µM

CC(=O)[C@H]1CC[C@@H]2[C@]1(C)CC=C1[C@]23C=C[C@]2(C[C@@H](O)CC[C@]12C)C(C(=O)O)C3C(=O)O (stereo partly drawn)
inactive: Hs-578T > 100 µM | MOLT-4 > 100 µM | MDA-MB-231 > 100 µM | NCI-H460 > 100 µM | HT-29 > 100 µM | DU-145 > 100 µM | OVCAR-4 > 100 µM | T47D > 100 µM | NCI-H23 > 100 µM | UO-31 > 100 µM | NCI/ADR-RES > 100 µM | U-251 > 100 µM | A498 > 100 µM | SW-620 > 100 µM | BT-549 > 100 µM | CAKI-1 > 100 µM | MCF7 > 100 µM | NCI-H522 > 100 µM

Cn1c(=O)c2nc3c(=O)n(C)c(=O)n(CC(N)=O)c3nc2n(C)c1=O
inactive: Hs-578T > 100 µM | MDA-MB-231 > 100 µM | NCI-H460 > 100 µM | HT-29 > 100 µM | DU-145 > 100 µM | OVCAR-4 > 100 µM | T47D > 100 µM | NCI-H23 > 100 µM | UO-31 > 100 µM | NCI/ADR-RES > 100 µM | U-251 > 100 µM | A498 > 100 µM | SW-620 > 100 µM | BT-549 > 100 µM | CAKI-1 > 100 µM | MCF7 > 100 µM | NCI-H522 > 100 µM

CC(NNC(=O)c1cc[n+]([BH2-]C#N)cc1)c1ccc(Cl)cc1Cl (stereo not drawn)
inactive: Hs-578T 39.5 µM | MOLT-4 17.5 µM | MDA-MB-231 35 µM | NCI-H460 44.1 µM | DU-145 68.5 µM | OVCAR-4 30.7 µM | T47D 34.5 µM | UO-31 26.2 µM | NCI/ADR-RES 31.6 µM | U-251 48.2 µM | A498 > 100 µM | SW-620 42.8 µM | BT-549 46.2 µM | CAKI-1 68.2 µM | MCF7 36 µM | NCI-H522 28.6 µM

O=C(Cc1ccccc1)Nc1nc2ccc(Cl)cc2c2nc(-c3ccco3)nn12
inactive: Hs-578T 11 µM | MOLT-4 > 100 µM | MDA-MB-231 > 21.2 µM | NCI-H460 > 100 µM | HT-29 > 100 µM | DU-145 > 100 µM | T47D > 100 µM | NCI-H23 47.1 µM | UO-31 > 100 µM | NCI/ADR-RES > 41.2 µM | U-251 16.8 µM | A498 > 60.3 µM | SW-620 > 100 µM | BT-549 > 100 µM | CAKI-1 > 100 µM | MCF7 4.46 µM | NCI-H522 > 100 µM
